# Laboratory results from US7473790B2 (Pfizer Inc., priority 2003, dated 2009).
# Biological target: T1, HCV polymerase (Hepatitis C virus genotype 1b, UniProt P26663)
# T1 construct: 2.5 pmoles (0.15 μg) HCV polymerase protein in a final volume of 75 μL
# Assay: HCV polymerase primer/template-directed transcription assay (32P-GTP incorporation, filter binding)
# Format: biochemical
# Conditions: @ 20 uM compound; given where IC50 was impractical to calculate; read-out: percent inhibition
# Method in brief: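 IC50s come from triplicate cpm, refit with an enzyme-concentration (30 nM) correction when under 200 nM. Reactions ran 30 min at 30° C in Tris pH 7.2 with MgCl2, 1 μM GTP spiked with α-32P-GTP, biotin-dG12 primer and poly(rC)300 template, with 1% DMSO. Incorporated label was collected on DE filtermats and counted.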
# T1 sequence (P26663 2420-3010): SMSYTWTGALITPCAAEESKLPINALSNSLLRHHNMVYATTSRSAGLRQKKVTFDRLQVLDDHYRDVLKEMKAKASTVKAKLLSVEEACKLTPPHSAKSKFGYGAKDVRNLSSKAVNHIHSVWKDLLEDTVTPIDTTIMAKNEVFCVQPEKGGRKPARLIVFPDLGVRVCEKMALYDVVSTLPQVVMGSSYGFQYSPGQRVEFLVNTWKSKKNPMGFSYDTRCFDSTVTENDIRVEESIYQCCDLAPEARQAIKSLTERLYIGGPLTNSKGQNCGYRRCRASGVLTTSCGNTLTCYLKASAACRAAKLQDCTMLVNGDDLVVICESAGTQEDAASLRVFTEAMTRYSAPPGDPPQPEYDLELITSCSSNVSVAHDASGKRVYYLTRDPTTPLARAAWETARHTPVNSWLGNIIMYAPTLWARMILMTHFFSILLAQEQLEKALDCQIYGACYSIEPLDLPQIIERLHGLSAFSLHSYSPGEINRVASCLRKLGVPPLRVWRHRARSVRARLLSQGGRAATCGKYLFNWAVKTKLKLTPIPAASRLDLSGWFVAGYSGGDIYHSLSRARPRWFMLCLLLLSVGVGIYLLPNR
row,Structure (SMILES),inhibition at 20 µM [%]
1,"COC(=O)Cc1cccc(CCC2(C3CCCC3)CC(=O)CC(=O)O2)c1 (stereo not drawn) [A(67), {3-[2-(2-Cyclopentyl-4,6-dioxo-tetrahydro-pyran-2-yl)-ethyl]-phenyl}-acetic acid methyl ester]",24
2,"O=C1CC(=O)OC(CCc2ccccn2)(C2CCCC2)C1 (stereo not drawn) [A(82), 6-Cyclopentyl-6-(2-pyridin-2-yl-ethyl)-dihydro-pyran-2,4-dione]",11

# Same assay, conditions: @ 50 uM compound; given where IC50 was impractical to calculate; read-out: percent inhibition
row,Structure (SMILES),inhibition at 50 µM [%]
1,"COc1ccc(CCC2(C3CCCC3)CC(=O)CC(=O)O2)c(C(C)=O)c1 (stereo not drawn) [A(61), 6-[2-(2-acetyl-4-methoxyphenyl)ethyl]-6-cyclopentyldihydro-2H-pyran-2,4(3H)-dione]",40

# Same assay, conditions: IC50, recombinant HCV polymerase; 30 minutes at 30° C.; concentration giving 50% inhibition of polymerase-directed transcription
row,Structure (SMILES),IC50 [µM]
1,"CC(C)(C#N)c1ccc(CCC2(C3CCCC3)CC(=O)CC(=O)O2)cc1F (stereo not drawn) [A(81), 2-{4-[2-(2-Cyclopentyl-4,6-dioxo-tetrahydro-pyran-2-yl)-ethyl]-2-fluoro-phenyl}-2-methyl-propionitrile]",0.14

# Same assay, conditions: recombinant HCV polymerase; 30 minutes at 30° C.; concentration giving 50% inhibition of polymerase-directed transcription; read-out: IC50
row,Structure (SMILES),IC50 [µM]
1,"O=C1CC(=O)OC(CCc2ccc(OC(F)F)cc2)(C2CCCC2)C1 (stereo not drawn) [A(58), 6-Cyclopentyl-6-[2-(4-difluoromethoxy-phenyl)-ethyl]-dihydro-pyran-2,4-dione]",6.5
2,"O=C1CC(=O)OC(CCc2ccc3c(c2)OC(F)(F)C(F)(F)O3)(C2CCCC2)C1 (stereo not drawn) [A(59), 6-Cyclopentyl-6-[2-(2,2,3,3-tetrafluoro-2,3-dihydro-benzo[1,4]dioxin-6-yl)-ethyl]-dihydro-pyran-2,4-dione]",3.2
3,"CCCOc1ccc(CCC2(C3CCCC3)CC(=O)CC(=O)O2)cc1 (stereo not drawn) [A(60), 6-Cyclopentyl-6-[2-(4-propoxy-phenyl)-ethyl]-dihydro-pyran-2,4-dione]",8.7
4,"CCC(=O)c1cc(OC)ccc1CCC1(C2CCCC2)CC(=O)CC(=O)O1 (stereo not drawn) [A(62), 6-cyclopentyl-6-[2-(4-methoxy-2-propionylphenyl)ethyl]dihydro-2H-pyran-2,4(3H)-dione]",8.3
5,"CC(C)c1ccc(CCC2(C3CCCC3)CC(=O)CC(=O)O2)cc1Cl (stereo not drawn) [A(63), 6-[2-(3-chloro-4-isopropylphenyl)ethyl]-6-cyclopentyldihydro-2H-pyran-2,4(3H)-dione]",11
6,"CC(C)c1ccc(CCC2(C3CCCC3)CC(=O)CC(=O)O2)cc1F (stereo not drawn) [A(64), 6-cyclopentyl-6-[2-(3-fluoro-4-isopropylphenyl)ethyl]dihydro-2H-pyran-2,4(3H)-dione]",4
7,"CCc1cc(CCC2(C3CCCC3)CC(=O)CC(=O)O2)ccc1F (stereo not drawn) [A(65), 6-cyclopentyl-6-[2-(3-ethyl-4-fluorophenyl)ethyl]dihydro-2H-pyran-2,4(3H)-dione]",1.3
8,"CCc1cccc(CCC2(C3CCCC3)CC(=O)CC(=O)O2)c1 (stereo not drawn) [A(66), 6-Cyclopentyl-6-[2-(3-ethyl-phenyl)-ethyl]-dihydro-pyran-2,4-dione]",3.6
9,"CC1(C)C(=O)Oc2ccc(CCC3(C4CCCC4)CC(=O)CC(=O)O3)cc21 (stereo not drawn) [A(68), 6-Cyclopentyl-6-[2-(3,3-dimethyl-2-oxo-2,3-dihydro-benzofuran-5-yl)-ethyl]-dihydro-pyran-2,4-dione]",3.4
10,"COC(=O)C1(c2cccc(CCC3(C4CCCC4)CC(=O)CC(=O)O3)c2)CC1 (stereo not drawn) [A(69), 1-{3-[2-(2-Cyclopentyl-4,6-dioxo-tetrahydro-pyran-2-yl)-ethyl]-phenyl}-cyclopropanecarboxylic acid methyl ester]",9.9
11,"N#CCc1cccc(CCC2(C3CCCC3)CC(=O)CC(=O)O2)c1 (stereo not drawn) [A(70), {3-[2-(2-Cyclopentyl-4,6-dioxo-tetrahydro-pyran-2-yl)-ethyl]-phenyl}-acetonitrile]",9.4
12,"CC(C)(CNC(=O)c1cc[nH]n1)c1cccc(CCC2(C3CCCC3)CC(=O)CC(=O)O2)c1 (stereo not drawn) [A(71), 1H-Pyrazole-3-carboxylic acid (2-{3-[2-(2-cyclopentyl-4,6-dioxo-tetrahydro-pyran-2-yl)-ethyl]-phenyl}-2-methyl-propyl)-amide]",1.9
13,"CC(C)(CNC(=O)CCc1ccco1)c1cccc(CCC2(C3CCCC3)CC(=O)CC(=O)O2)c1 (stereo not drawn) [A(72), N-(2-{3-[2-(2-Cyclopentyl-4,6-dioxo-tetrahydro-pyran-2-yl)-ethyl]-phenyl}-2-methyl-propyl)-3-furan-2-yl-propionamide]",1.5
14,"Cc1cc(C(=O)NCC(C)(C)c2cccc(CCC3(C4CCCC4)CC(=O)CC(=O)O3)c2)oc1C (stereo not drawn) [A(73), 4,5-Dimethyl-furan-2-carboxylic acid (2-{3-[2-(2-cyclopentyl-4,6-dioxo-tetrahydro-pyran-2-yl)-ethyl]-phenyl}-2-methyl-propyl)-amide]",3.3
15,"CC(C)(CNC(=O)c1cnc(O)cn1)c1cccc(CCC2(C3CCCC3)CC(=O)CC(=O)O2)c1 (stereo not drawn) [A(74), 5-Hydroxy-pyrazine-2-carboxylic acid (2-{3-[2-(2-cyclopentyl-4,6-dioxo-tetrahydro-pyran-2-yl)-ethyl]-phenyl}-2-methyl-propyl)-amide]",1.2
16,"N#CCC(=O)c1ccc(CCC2(C3CCCC3)CC(=O)CC(=O)O2)cc1 (stereo not drawn) [A(75), 3-{4-[2-(2-Cyclopentyl-4,6-dioxo-tetrahydro-pyran-2-yl)-ethyl]-phenyl}-3-oxo-propionitrile]",7.1
17,"CC1(C)COc2ccc(CCC3(C4CCCC4)CC(=O)CC(=O)O3)cc21 (stereo not drawn) [A(76), 6-Cyclopentyl-6-[2-(3,3-dimethyl-2,3-dihydro-benzofuran-5-yl)-ethyl]-dihydro-pyran-2,4-dione]",5.8
18,"O=C1CC(=O)OC(CCc2ccc(Cc3nccs3)c(F)c2)(C2CCCC2)C1 (stereo not drawn) [A(77), 6-Cyclopentyl-6-[2-(3-fluoro-4-thiazol-2-ylmethyl-phenyl)-ethyl]-dihydro-pyran-2,4-dione]",24

row,Structure (SMILES),IC50 [µM]
1,"O=C1CC(=O)OC(CCc2cccc(Cc3nccs3)c2)(C2CCCC2)C1 (stereo not drawn) [A(78), 6-Cyclopentyl-6-[2-(3-thiazol-2-ylmethyl-phenyl)-ethyl]-dihydro-pyran-2,4-dione]",21
2,"O=C1CC(=O)OC(CCc2ccc(CCO)cc2)(C2CCCC2)C1 (stereo not drawn) [A(79), 6-Cyclopentyl-6-{2-[4-(2-hydroxy-ethyl)-phenyl]-ethyl}-dihydro-pyran-2,4-dione]",1
3,"O=C1CC(=O)OC(CCc2cccc(CCO)c2)(C2CCCC2)C1 (stereo not drawn) [A(80), 6-Cyclopentyl-6-{2-[3-(2-hydroxy-ethyl)-phenyl]-ethyl}-dihydro-pyran-2,4-dione]",20
4,"CCC(CC)Oc1ccc(CCC2(C3CCCC3)CC(=O)CC(=O)O2)cc1Cl (stereo not drawn) [A(83), 6-{2-[3-Chloro-4-(1-ethyl-propoxy)-phenyl]-ethyl}-6-cyclopentyl-dihydro-pyran-2,4-dione]",5.4
5,"CC(=O)c1ccc(CCC2(C3CCCC3)CC(=O)CC(=O)O2)s1 (stereo not drawn) [A(84), 6-[2-(5-Acetyl-thiophen-2-yl)-ethyl]-6-cyclopentyl-dihydro-pyran-2,4-dione]",6.8
6,"CNS(=O)(=O)c1ccc(CCC2(C3CCCC3)CC(=O)CC(=O)O2)cc1F (stereo not drawn) [A(85), 4-[2-(2-Cyclopentyl-4,6-dioxo-tetrahydro-pyran-2-yl)-ethyl]-2-fluoro-methyl-benzenesulfonamide]",12.4
7,"N#CC1(c2ccc(CCC3(C4CCCC4)CC(=O)CC(=O)O3)cc2F)CC1 (stereo not drawn) [A(86), 1-{4-[2-(2-Cyclopentyl-4,6-dioxo-tetrahydro-pyran-2-yl)-ethyl]-2-fluoro-phenyl}-cyclopropanecarbonitrile]",0.4
8,CCc1cc(CCC2(C3CCCC3)CC(=O)CC(=O)O2)ccc1N(C)S(C)(=O)=O (stereo not drawn) [A(87)],0.89
9,"CN(c1ccc(CCC2(C3CCCC3)CC(=O)CC(=O)O2)cc1)S(C)(=O)=O (stereo not drawn) [A(88), N-{4-[2-(2-cyclopentyl-4,6-dioxotetrahydro-2H-pyran-2-yl)ethyl]phenyl}-N-methylmethanesulfonamide]",2.3
10,"O=C1CC(=O)OC(CCc2ccc(O)c(C3CCCC3)c2)(C2CCCC2)C1 (stereo not drawn) [A(89), 6-cyclopentyl-6-[2-(3-cyclopentyl-4-hydroxyphenyl)ethyl]dihydro-2H-pyran-2,4(3H)-dione]",2.8
11,"CCCc1cc(CCC2(C3CCCC3)CC(=O)CC(=O)O2)ccc1O (stereo not drawn) [A(90), 6-cyclopentyl-6-[2-(4-hydroxy-3-propylphenyl)ethyl]dihydro-2H-pyran-2,4(3H)-dione]",0.77
12,"CCC(C#N)(CC)c1ccc(CCC2(C3CCCC3)CC(=O)CC(=O)O2)cc1F (stereo not drawn) [A(91), 2-{4-[2-(2-Cyclopentyl-4,6-dioxo-tetrahydro-pyran-2-yl)-ethyl]-2-fluoro-phenyl}-2-ethyl-butyronitrile]",0.5
13,"N#CC1(c2ccc(CCC3(C4CCCC4)CC(=O)CC(=O)O3)cc2F)CCC1 (stereo not drawn) [A(92), 1-{4-[2-(2-Cyclopentyl-4,6-dioxo-tetrahydro-pyran-2-yl)-ethyl]-2-fluoro-phenyl}-cyclobutanecarbonitrile]",1
14,"CC(C)c1cc(CCC2(C3CCCC3)CC(=O)CC(=O)O2)ccc1O (stereo not drawn) [A(93), 6-Cyclopentyl-6-[2-(4-hydroxy-3-isopropyl-phenyl)-ethyl]-dihydro-pyran-2,4-dione]",0.7
15,"CC(=O)Oc1ccc(CCC2(C3CCCC3)CC(=O)CC(=O)O2)cc1C(C)C (stereo not drawn) [A(94), Acetic acid 4-[2-(2-cyclopentyl-4,6-dioxo-tetrahydro-pyran-2-yl)-ethyl]-2-isopropyl-phenyl ester]",4
16,"O=C1CC(=O)OC(CCc2ccc(O)c(Cl)c2)(C2CCCC2)C1 (stereo not drawn) [A(95), 6-[2-(3-Chloro-4-hydroxy-phenyl)-ethyl]-6-cyclopentyl-dihydro-pyran-2,4-dione]",2.1
17,"CCc1cc(CCC2(C3CCCC3)CC(=O)CC(=O)O2)ccc1OC (stereo not drawn) [A(96), 6-Cyclopentyl-6-[2-(3-ethyl-4-methoxy-phenyl)-ethyl]-dihydro-pyran-2,4-dione]",3.2
